Assay: xn = mol fraction of the nth substance listed
Details: 101 kPa, Liquid; for viscosity: Capillary tube (Ostwald / Ubbelohde) method; for mass density: Vibrating tube method

CCCCCC(C)O (stereo not given) [2-heptanol] + NC=O
Details | mass density, 298.15 K [kg/m3] | mass density, 303.15 K [kg/m3] | mass density, 308.15 K [kg/m3] | mass density, 313.15 K [kg/m3] | viscosity, 298.15 K [mPa·s] | viscosity, 303.15 K [mPa·s] | viscosity, 308.15 K [mPa·s] | viscosity, 313.15 K [mPa·s]
x2 = 0 | 813.38 | 809.5 | 805.72 | 801.46 | 5.296 | 4.315 | 3.535 | 2.96
x2 = 0.0819 | 821.08 | 817.04 | 813.18 | 808.95 | 5.094 | 4.157 | 3.403 | 2.842
x2 = 0.1603 | 829.46 | 825.3 | 821.41 | 817.16 | 4.915 | 4.021 | 3.299 | 2.767
x2 = 0.2402 | 839.28 | 835.08 | 831.16 | 826.89 | 4.744 | 3.905 | 3.219 | 2.718
x2 = 0.3508 | 855.44 | 851.28 | 847.38 | 843.03 | 4.541 | 3.773 | 3.131 | 2.669
x2 = 0.4402 | 871.35 | 867.27 | 863.34 | 858.97 | 4.385 | 3.673 | 3.07 | 2.637
x2 = 0.567 | 900.02 | 895.95 | 891.92 | 887.52 | 4.176 | 3.543 | 2.997 | 2.607
x2 = 0.6525 | 924.85 | 920.66 | 916.51 | 912.11 | 4.035 | 3.459 | 2.952 | 2.593
x2 = 0.7403 | 957.01 | 952.58 | 948.4 | 944.03 | 3.881 | 3.363 | 2.896 | 2.571
x2 = 0.8501 | 1010.97 | 1006.37 | 1002.12 | 997.89 | 3.647 | 3.204 | 2.792 | 2.51
x2 = 0.94 | 1072.96 | 1068.47 | 1064.24 | 1059.95 | 3.446 | 3.069 | 2.701 | 2.455

CCCCC(C)O (stereo not given) [2-hexanol] + NC=O
Details | mass density, 298.15 K [kg/m3] | mass density, 303.15 K [kg/m3] | mass density, 308.15 K [kg/m3] | mass density, 313.15 K [kg/m3] | viscosity, 298.15 K [mPa·s] | viscosity, 303.15 K [mPa·s] | viscosity, 308.15 K [mPa·s] | viscosity, 313.15 K [mPa·s]
x2 = 0 | 810.14 | 806.13 | 802.06 | 797.96 | 4.101 | 3.411 | 2.819 | 2.219
x2 = 0.0818 | 818.06 | 814.05 | 809.79 | 805.72 | 4.008 | 3.334 | 2.753 | 2.171
x2 = 0.1638 | 827.12 | 823.03 | 818.79 | 814.58 | 3.918 | 3.276 | 2.711 | 2.16
x2 = 0.2392 | 836.66 | 832.51 | 828.24 | 823.99 | 3.85 | 3.23 | 2.69 | 2.169
x2 = 0.3529 | 853.7 | 849.5 | 845.26 | 841.01 | 3.778 | 3.176 | 2.679 | 2.199
x2 = 0.4439 | 870.39 | 866.2 | 861.95 | 857.71 | 3.744 | 3.187 | 2.686 | 2.235
x2 = 0.5613 | 897.25 | 893.04 | 888.76 | 884.48 | 3.695 | 3.185 | 2.71 | 2.3
x2 = 0.6496 | 922.95 | 918.63 | 914.3 | 909.96 | 3.647 | 3.169 | 2.724 | 2.35
x2 = 0.743 | 957.42 | 953.01 | 948.59 | 944.27 | 3.582 | 3.144 | 2.726 | 2.392
x2 = 0.8502 | 1010.56 | 1006.13 | 1001.67 | 997.41 | 3.479 | 3.078 | 2.695 | 2.406
x2 = 0.9398 | 1072.59 | 1068.37 | 1063.89 | 1059.71 | 3.378 | 3.021 | 2.662 | 2.413

NC=O [formamide] + CC(C)O
Details | mass density, 298.15 K [kg/m3] | mass density, 303.15 K [kg/m3] | mass density, 308.15 K [kg/m3] | mass density, 313.15 K [kg/m3] | viscosity, 298.15 K [mPa·s] | viscosity, 303.15 K [mPa·s] | viscosity, 308.15 K [mPa·s] | viscosity, 313.15 K [mPa·s]
x1 = 0.0831 | 797.37 | 793.08 | 788.56 | 783.84 | 2.167 | 1.867 | 1.623 | 1.399
x1 = 0.1563 | 813.03 | 808.66 | 803.98 | 799.2 | 2.254 | 1.948 | 1.688 | 1.464
x1 = 0.2377 | 831.8 | 827.33 | 822.51 | 817.62 | 2.382 | 2.064 | 1.791 | 1.567
x1 = 0.3518 | 860.85 | 856.24 | 851.26 | 846.25 | 2.585 | 2.259 | 1.974 | 1.745
x1 = 0.4403 | 885.89 | 881.14 | 876.01 | 871.03 | 2.739 | 2.409 | 2.115 | 1.884
x1 = 0.5371 | 916.34 | 911.48 | 906.38 | 901.3 | 2.888 | 2.556 | 2.256 | 2.026
x1 = 0.6352 | 950.91 | 946.08 | 940.93 | 935.92 | 3.015 | 2.684 | 2.371 | 2.144
x1 = 0.7388 | 992.47 | 987.75 | 982.64 | 977.69 | 3.127 | 2.789 | 2.464 | 2.233
x1 = 0.8497 | 1043.91 | 1039.54 | 1034.66 | 1029.87 | 3.218 | 2.878 | 2.541 | 2.312
x1 = 0.94 | 1092.69 | 1088.45 | 1083.96 | 1079.51 | 3.277 | 2.939 | 2.601 | 2.377
x1 = 1 | 1129 | 1125.1 | 1120.98 | 1116.85 | 3.305 | 2.975 | 2.64 | 2.42

NC=O [formamide] + CCC(C)O
Details | mass density, 298.15 K [kg/m3] | mass density, 303.15 K [kg/m3] | mass density, 308.15 K [kg/m3] | mass density, 313.15 K [kg/m3] | viscosity, 298.15 K [mPa·s] | viscosity, 303.15 K [mPa·s] | viscosity, 308.15 K [mPa·s] | viscosity, 313.15 K [mPa·s]
x1 = 0.0871 | 815.72 | 811.44 | 807.59 | 802.69 | 3.039 | 2.541 | 2.137 | 1.81
x1 = 0.1597 | 827.26 | 822.99 | 819.07 | 814.17 | 3.048 | 2.561 | 2.158 | 1.836
x1 = 0.2462 | 842.51 | 838.24 | 834.28 | 829.39 | 3.074 | 2.601 | 2.206 | 1.893
x1 = 0.3993 | 874.46 | 870.19 | 866.14 | 861.25 | 3.178 | 2.729 | 2.337 | 2.037
x1 = 0.4397 | 884.15 | 879.88 | 875.81 | 870.92 | 3.207 | 2.763 | 2.372 | 2.078
x1 = 0.5567 | 916.06 | 911.78 | 907.68 | 902.82 | 3.279 | 2.855 | 2.477 | 2.195
x1 = 0.6516 | 947.04 | 942.76 | 938.6 | 933.86 | 3.318 | 2.911 | 2.54 | 2.272
x1 = 0.7376 | 980.23 | 975.94 | 971.72 | 967.08 | 3.336 | 2.945 | 2.582 | 2.324
x1 = 0.8512 | 1033.92 | 1029.63 | 1025.39 | 1020.93 | 3.34 | 2.973 | 2.617 | 2.371
x1 = 0.9309 | 1080.54 | 1076.36 | 1072.19 | 1067.81 | 3.329 | 2.98 | 2.631 | 2.398
x1 = 1 | 1129 | 1125.1 | 1120.98 | 1116.85 | 3.305 | 2.975 | 2.64 | 2.42

CCCC(C)O (stereo not given) [pentan-2-ol] + NC=O
Details | mass density, 298.15 K [kg/m3] | mass density, 303.15 K [kg/m3] | mass density, 308.15 K [kg/m3] | mass density, 313.15 K [kg/m3] | viscosity, 298.15 K [mPa·s] | viscosity, 303.15 K [mPa·s] | viscosity, 308.15 K [mPa·s] | viscosity, 313.15 K [mPa·s]
x2 = 0 | 805.05 | 800.88 | 796.89 | 792.62 | 3.423 | 2.834 | 2.348 | 1.979
x2 = 0.0823 | 814.65 | 810.45 | 806.51 | 802.09 | 3.386 | 2.811 | 2.328 | 1.959
x2 = 0.1639 | 825.39 | 821.13 | 817.19 | 812.73 | 3.363 | 2.801 | 2.329 | 1.973
x2 = 0.2393 | 836.58 | 832.27 | 828.29 | 823.79 | 3.353 | 2.811 | 2.348 | 2.004
x2 = 0.3541 | 856.48 | 852.09 | 848.01 | 843.52 | 3.379 | 2.864 | 2.409 | 2.075
x2 = 0.4444 | 875.19 | 870.77 | 866.59 | 862.13 | 3.402 | 2.911 | 2.468 | 2.144
x2 = 0.5612 | 904.57 | 900.13 | 895.87 | 891.4 | 3.422 | 2.964 | 2.544 | 2.237
x2 = 0.6497 | 932.05 | 927.6 | 923.33 | 918.86 | 3.431 | 2.989 | 2.587 | 2.298
x2 = 0.7431 | 967.72 | 963.24 | 959 | 954.54 | 3.42 | 3.003 | 2.615 | 2.343
x2 = 0.8502 | 1020.4 | 1016.03 | 1011.79 | 1007.32 | 3.384 | 3.001 | 2.628 | 2.38
x2 = 0.9398 | 1079.03 | 1074.66 | 1070.45 | 1066.08 | 3.341 | 2.988 | 2.635 | 2.403

Reference: the NIST ThermoML archive (doi:10.1016/j.jct.2013.09.043)
